According to US9856247B2, “4-methyl-dihydropyrimidines for the treatment and prophylaxis of Hepatitis B virus infection” (Hoffmann-La Roche Inc., priority 2012, dated 2018):
Where two headings read alike, the source gives them in different places.

Legend:
[1] = tested on: HBV DNA; experiment: Anti-HBV activity in HepDE19 cells (HBV DNA dot-blot); assay type: cell-based, Hepatitis B virus (HBV)
Source text: Cells and culture conditions: HepDE19 (Haitao Guo et al, Journal of Virology, 81, November 2007, 12472-12484; Richeng Mao et al, Journal of Virology, 85, January 2011, 1048-1057) cells were derived from HepG2 (ATCC, American Type Culture Collection) cells through transfection with pTet-off plasmid (Clontech) that expresses the Tet-responsive transcriptional activator and pTREHBVDE plasmid in which HBV pgRNA expression is controlled by a CMV early promoter with a tetracycline-responsive element. The transfected cells were selected with G418 (also known as Genticin, purchased from Invitrogen). […] These cells were maintained in Dulbecco's modified Eagle's medium (DMEM)-F12 medium (Invitrogen) supplemented with 10% fetal bovine serum, 100 U/ml penicillin, and 100 μg/ml streptomycin, 0.5 mg/ml of G418 and 1 μg/ml tetracycline.
Anti-HBV activity and cytotoxicity: HepDE19 cells were seeded into 96-well plates (3×10^4 cells/well) with tetracycline-free medium and incubated overnight at 37° C. The test or control compounds were serially half-log diluted with medium and added into the plates (the final concentration of DMSO kept at 0.5% in each well). Five days after compound treatment, cells were washed with PBS and lysed with 50 mM Tris-1 mM EDTA-0.2% CA-630 (pH 8.0) at 37° C. for 20 min. After centrifugation to remove nuclei and other debris, the supernatant was transferred into a new plate and incubated with 2M NaOH/20×SSC (3M NaCl, 0.3M Sodium citrate, pH7.0) at rt for 30 min. Then the samples were transferred to nylon membrane and neutralized with 1M Tris (pH7.4)/2M NaCl. The presence of HBV DNA was detected by dot-blot with DIG-labeled HBV specific DNA probe and quantified by dot density. The compound concentrations that inhibited HBV DNA by 50% (EC50) were determined (See Table 1).

[2] = in vitro; details: human
Method: The transfected cells were selected with G418 (also known as Genticin, purchased from Invitrogen). […] These cells were maintained in Dulbecco's modified Eagle's medium (DMEM)-F12 medium (Invitrogen) supplemented with 10% fetal bovine serum, 100 U/ml penicillin, and 100 μg/ml streptomycin, 0.5 mg/ml of G418 and 1 μg/ml tetracycline.
To determine if the anti-HBV effect of compound is due to cytotoxicity, HepDE 19 cells (5×10^3 cells/well) were seeded into 96-well plates and compounds were treated as described above. […] Four hours after incubation at 37° C., the absorbance at wavelengths of 450 nm and 630 nm (OD450 and OD630) was recorded by a plate reader.

[3] = Hepatitis B virus, 120 h, HepDE19 cells, five days after compound treatment, concentration that inhibited HBV DNA by 50%, read-out: HepDe19 EC50
[4] = Hepatitis B virus, HepDE19, 120 h, read-out: HepDe19 EC50

Row | SMILES | EC50 ([1]; read-out: EC50 value, HBV DNA reduction in HepDE19 cell based assays) | CC50 at 5 days [2] | EC50 [1, 3] | EC50 [1, 4]
1 | COC(=O)c1c(C)nc(-c2ncc(F)cc2F)nc1-c1ccc(F)cc1Cl [XLVI] | > 100 µM | – | – | –
2 | COC(=O)C1=C(CN2CCOC[C@H]2C(=O)O)NC(c2nccs2)=NC1(C)c1ccc(F)c(F)c1 (stereo partly drawn) [Example 16, 4-[6-(3,4-Difluoro-phenyl)-5-methoxycarbonyl-6-methyl-2-thiazol-2-yl-3,6-dihydro-pyrimidin-4-ylmethyl]-morpholine-3-carboxylic acid] | – | > 100 µM | 0.25 µM | –
3 | COC(=O)C1=C(CN2CC(F)(F)C[C@H]2c2nc(C)no2)NC(c2nccs2)=N[C@@]1(C)c1ccc(F)cc1 [Example 59, (S)-6-[(S)-4,4-difluoro-2-(3-methyl-[1,2,4]oxadiazol-5-yl)-pyrrolidin-1-ylmethyl]-4-(4-fluoro-phenyl)-4-methyl-2-thiazol-2-yl-1,4-dihydro-pyrimidine-5-carboxylic acid methyl ester] | – | 65.3 µM | 1.24 µM | –
4 | COC(=O)C1=C(CN2CC(F)(F)C[C@H]2C(=O)O)NC(c2nc(C)cs2)=N[C@]1(C)c1ccc(F)cc1 [Example 31, (R)-6-((S)-2-carboxy-4,4-difluoro-pyrrolidin-1-ylmethyl)-4-(4-fluoro-phenyl)-4-methyl-2-(4-methyl-thiazol-2-yl)-1,4-dihydro-pyrimidine-5-carboxylic acid methyl ester] | – | ≥ 100 µM | 1.67 µM | –
5 | COC(=O)C1=C(CN2C[C@H](F)C[C@H]2C(=O)O)NC(c2nccs2)=N[C@@]1(C)c1ccc(F)cc1 [Example 34, (S)-6-((2S,4R)-2-Carboxy-4-fluoro-pyrrolidin-1-ylmethyl)-4-(4-fluoro-phenyl)-4-methyl-2-thiazol-2-yl-1,4-dihydro-pyrimidine-5-carboxylic acid methyl ester] | – | ≥ 100 µM | 2.84 µM | –
6 | COC(=O)C1=C(CN2CC(F)(F)C[C@H]2C(=O)O)NC(c2sccc2F)=N[C@@]1(C)c1ccc(F)cc1 [Example 41, (S)-6-((S)-2-carboxy-4,4-difluoro-pyrrolidin-1-ylmethyl)-4-(4-fluoro-phenyl)-2-(3-fluoro-thiophen-2-yl)-4-methyl-1,4-dihydro-pyrimidine-5-carboxylic acid methyl ester] | – | ≥ 100 µM | 0.285 µM | –
7 | COC(=O)C1=C(CN2CC(F)(F)C[C@H]2C(=O)N(C)C)NC(c2nccs2)=N[C@@]1(C)c1ccc(F)cc1 [Example 49, (S)-6-((S)-2-dimethylcarbamoyl-4,4-difluoro-pyrrolidin-1-ylmethyl)-4-(4-fluoro-phenyl)-4-methyl-2-thiazol-2-yl-1,4-dihydro-pyrimidine-5-carboxylic acid methyl ester] | – | ≥ 100 µM | 0.29 µM | –
8 | COC(=O)C1=C(CN(CC(=O)O)CC(F)(F)F)NC(c2nccs2)=N[C@@]1(C)c1ccc(F)cc1 [Example 44, (S)-6-{[carboxymethyl-(2,2,2-trifluoro-ethyl)-amino]-methyl}-4-(4-fluoro-phenyl)-4-methyl-2-thiazol-2-yl-1,4-dihydro-pyrimidine-5-carboxylic acid methyl ester] | – | ≥ 100 µM | 21.5 µM | –
9 | COC(=O)C1=C(CN2CC(F)(F)C[C@H]2C(=O)O)NC(c2nccs2)=N[C@@]1(C)c1ccc(F)cc1 [Example 13, (S)-6-((S)-2-Carboxy-4,4-difluoro-pyrrolidin-1-ylmethyl)-4-(4-fluoro-phenyl)-4-methyl-2-thiazol-2-yl-1,4-dihydro-pyrimidine-5-carboxylic acid methyl ester] | – | – | – | 0.15 µM
10 | COC(=O)C1=C(CN2CC(F)(F)C[C@H]2C(=O)O)NC(c2ccon2)=NC1(C)c1ccc(F)cc1 (stereo partly drawn) [Example 35, 6-((S)-2-carboxy-4,4-difluoro-pyrrolidin-1-ylmethyl)-4-(4-fluoro-phenyl)-2-isoxazol-3-yl-4-methyl-1,4-dihydro-pyrimidine-5-carboxylic acid methyl ester] | – | ≥ 100 µM | 15 µM | –
11 | COC(=O)C1=C(CN2C[C@@H](F)C[C@H]2C(=O)O)NC(c2nccs2)=N[C@@]1(C)c1ccc(F)cc1 [Example 39, (S)-6-((2S,4S)-2-carboxy-4-fluoro-pyrrolidin-1-ylmethyl)-4-(4-fluoro-phenyl)-4-methyl-2-thiazol-2-yl-1,4-dihydro-pyrimidine-5-carboxylic acid methyl ester] | – | ≥ 100 µM | 10.5 µM | –
12 | COC(=O)C1=C(CN2CC(F)(F)C[C@H]2C(=O)O)NC(c2nccs2)=NC1(C)c1ccc(F)cc1 (stereo partly drawn) [Example 11, 6-(2-(S)-Carboxy-4,4-difluoro-pyrrolidin-1-ylmethyl)-4-(4-fluoro-phenyl)-4-methyl-2-thiazol-2-yl-1,4-dihydro-pyrimidine-5-carboxylic acid methyl ester] | – | – | – | 0.46 µM
13 | COC(=O)C1=C(CN2CC(F)(F)C[C@H]2C(=O)OC)NC(c2nccs2)=N[C@@]1(C)c1ccc(F)cc1 [Example 45, (S)-6-((S)-4,4-difluoro-2-methoxycarbonyl-pyrrolidin-1-ylmethyl)-4-(4-fluoro-phenyl)-4-methyl-2-thiazol-2-yl-1,4-dihydro-pyrimidine-5-carboxylic acid methyl ester] | – | ≥ 100 µM | – | –
14 | COC(=O)C1=C(CN2CC(F)(F)C[C@H]2C(=O)OCCN(C)C)NC(c2nccs2)=N[C@@]1(C)c1ccc(F)cc1 [Example 46, (S)-6-[(S)-2-(2-dimethylamino-ethoxycarbonyl)-4,4-difluoro-pyrrolidin-1-ylmethyl]-4-(4-fluoro-phenyl)-4-methyl-2-thiazol-2-yl-1,4-dihydro-pyrimidine-5-carboxylic acid methyl ester] | – | ≥ 100 µM | 2.13 µM | –
15 | COC(=O)C1=C(COC(C)(C)C(=O)OC)NC(c2nccs2)=NC1(C)c1ccc(F)cc1 (stereo not drawn) [Example 1, 4-(4-Fluoro-phenyl)-6-(1-methoxycarbonyl-1-methyl-ethoxymethyl)-4-methyl-2-thiazol-2-yl-1,4-dihydro-pyrimidine-5-carboxylic acid methyl ester] | – | > 100 µM | 26.3 µM | –
16 | COC(=O)C1=C(CN2CC(F)(F)CC2CCCO)NC(c2nccs2)=N[C@@]1(C)c1ccc(F)cc1 (stereo partly drawn) [Example 56, (S)-6-[4,4-difluoro-2-(3-hydroxy-propyl)-pyrrolidin-1-ylmethyl]-4-(4-fluoro-phenyl)-4-methyl-2-thiazol-2-yl-1,4-dihydro-pyrimidine-5-carboxylic acid methyl ester] | – | 90 µM | 0.66 µM | –
17 | COC(=O)C1=C(CN2CC(F)(F)C[C@@H]2C(=O)O)NC(c2nccs2)=NC1(C)c1ccc(F)cc1 (stereo partly drawn) [Example 12, 6-(2-(R)-Carboxy-4,4-difluoro-pyrrolidin-1-ylmethyl)-4-(4-fluoro-phenyl)-4-methyl-2-thiazol-2-yl-1,4-dihydro-pyrimidine-5-carboxylic acid methyl ester] | – | – | – | 6.59 µM
18 | COC(=O)C1=C(CN2CC(F)(F)C[C@H]2C(=O)O)NC(c2ccc(F)s2)=N[C@@]1(C)c1ccc(F)cc1 [Example 38, (S)-6-((S)-2-carboxy-4,4-difluoro-pyrrolidin-1-ylmethyl)-4-(4-fluoro-phenyl)-2-(5-fluoro-thiophen-2-yl)-4-methyl-1,4-dihydro-pyrimidine-5-carboxylic acid methyl ester] | – | – | 2.03 µM | –
